Measured values: US9255072B2, “Pyrazole compounds and thiazole compounds as protein kinases inhibitors” (National Health Rsearch Institutes, priority 2011, dated 2016)
Where two headings read alike, the source gives them in different places.

Assays:
[1] = test system: MOLM-13 cell; experiment: MTS cell viability assay; type: cell-based; settings: Homo sapiens, MOLM-13, 72 h, table of representative values
Description: The leukemias cell lines MOLM-13, MV4:11, RSV4:11, MOLT-4, U937, and K562 were purchased from American Type Culture Collection (ATCC, Manassas, Va., USA). The non-leukemias cell lines HCC827, H1975, NCIH460, A431, Huh7, SF268, MCF-7, HCT-116, and normal human fetal fibroblast cell line Detriot 551 were purchased from American Type Culture Collection (ATCC, Manassas, Va., USA). All leukemias cell lines and HCC827, H1975, NCIH460, A431 were maintained in RPMI 1640 medium supplemented with 10% fetal bovine serum (FBS), 10 U/ml penicillin, and 10 µg/ml streptomycin at 37° C. and 5% CO2. The cell lines Huh7, SF268, MCF-7, and Detroit 551 were cultured in DMEM medium supplemented with 10% FBS, 0.01% nonessential amino acids, 10 U/ml penicillin, and 10 µg/ml streptomycin. HCT-116 were cultured in McCoy's 5A medium supplemented with 10% FBS, 0.01% nonessential amino acids, 10 U/ml penicillin, and 10 µg/ml streptomycin. To determine cell viability after drug treatment, assays were performed by seeding 10,000 cells (leukemias cell lines) or 2,500 cells (non-leukemias cell lines) per well in a 96-well culture plate. After 16 h, cells were then treated with vehicle or various concentrations of compound in medium for 72 h. Viable cells were quantitated using the MTS method (Promega, Madison, Wis., USA) according to the manufacturer's recommended protocol. The results were determined by measuring the absorbance at 490 nm using a plate reader (Victor2; PerkinElmer, Shelton, Conn., USA).

[2] = target: T1, Aurora A (Homo sapiens, UniProt O14965); experiment: Aurora kinase A Kinase-Glo kinase assay; type: biochemical
T1 construct: GST-Aurora A (residues S123-S401); GST (N); made in house; host or cells: Sf9 insect cells
T1 sequence (O14965 123-401): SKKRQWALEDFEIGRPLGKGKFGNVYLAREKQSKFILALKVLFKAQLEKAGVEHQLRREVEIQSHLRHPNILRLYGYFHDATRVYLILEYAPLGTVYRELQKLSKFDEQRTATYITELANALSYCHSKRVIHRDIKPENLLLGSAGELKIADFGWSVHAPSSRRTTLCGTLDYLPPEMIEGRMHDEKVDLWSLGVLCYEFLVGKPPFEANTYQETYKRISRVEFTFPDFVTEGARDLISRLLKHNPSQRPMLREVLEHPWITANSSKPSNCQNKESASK
Experimental: The recombinant GST-Aurora A (residues S123-S401) containing kinase domain were expressed in Sf9 insect cells. The kinase assay were carried out in 96-well plates with tested compound in a final volume of 50 μl reaction at 37° C. for 90 minutes with following components: 50 mM Tris-HCl pH 7.4, 10 mM NaCl, 10 mM MgCl2, 0.01% BSA, 5 μM ATP, 1 mM DTT and 15 μM tetra(LRRASLG) peptide, and 150 ng recombinant Aurora A. Following incubation, 50 μl Kinase-Glo Plus Reagent (Promega, Madison, Wis., USA) was added to each well and the mixture was incubated at 25° C. for 20 min. A 70-μL aliquot of each reaction mixture was transferred to a black microtiter plate and the luminescence was measured on Wallac Vector 1420 multilabel counter (PerkinElmer, Shelton, Conn., USA).

[3] = target: T2, VEGFR2 (Homo sapiens, UniProt P35968); experiment: VEGFR2 Kinase-Glo kinase assay; type: biochemical
T2 construct: GST-VEGFR2 (residues V789-V1356); GST (N); made in house; host or cells: Sf9 insect cells
Experimental: (§1) The recombinant GST-VEGFR1 (residues R781-I1338) or GST-VEGFR2 (residues V789-V1356) containing kinase domain were expressed in Sf9 insect cells. The kinase assay were carried out in 96-well plates with tested compound in a final volume of 50 μl reaction at 30° C. for 120 minutes with following components: 25 mM HEPES pH 7.4, 10 mM MgCl2, 4 mM MnCl2, 0.5 mM Na3VO4, 2 mM DTT, 0.02% Triton X100, 0.01% BSA, 1 μM ATP, 2 μM polyGlu4:Tyr peptide, 50˜100 ng recombinant VEGFR1 or VEGFR2. Following incubation, 50 μl Kinase-Glo Plus Reagent (Promega, Madison, Wis., USA) was added to each well and the mixture was incubated at 25° C. for 20 min. A 70-μL aliquot of each reaction mixture was transferred to a black microtiter plate and the luminescence was measured on Wallac Vector 1420 multilabel counter (PerkinElmer, Shelton, Conn., USA).

[4] = target: T3, VEGFR1 (Homo sapiens, UniProt P17948); experiment: VEGFR1 Kinase-Glo kinase assay; type: biochemical
T3 construct: GST-VEGFR1 (residues R781-I1338); GST (N); made in house; host or cells: Sf9 insect cells
T3 sequence (P17948 781-1338): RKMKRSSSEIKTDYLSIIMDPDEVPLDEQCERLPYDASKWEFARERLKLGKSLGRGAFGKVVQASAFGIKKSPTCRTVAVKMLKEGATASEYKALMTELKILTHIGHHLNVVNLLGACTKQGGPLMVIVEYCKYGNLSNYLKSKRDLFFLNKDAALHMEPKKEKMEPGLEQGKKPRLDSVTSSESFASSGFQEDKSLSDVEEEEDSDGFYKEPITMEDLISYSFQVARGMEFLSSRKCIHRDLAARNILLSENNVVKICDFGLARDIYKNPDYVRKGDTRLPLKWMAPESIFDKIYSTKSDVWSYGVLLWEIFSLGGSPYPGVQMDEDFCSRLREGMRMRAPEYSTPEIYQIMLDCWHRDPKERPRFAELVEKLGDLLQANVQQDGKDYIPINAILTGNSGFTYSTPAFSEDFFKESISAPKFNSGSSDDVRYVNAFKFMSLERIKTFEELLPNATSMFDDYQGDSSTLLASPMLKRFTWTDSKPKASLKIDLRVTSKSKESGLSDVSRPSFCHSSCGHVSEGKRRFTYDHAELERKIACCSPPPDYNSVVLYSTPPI
Experimental: as §1

[5] = target: T4, wt-FLT3 (Homo sapiens, UniProt P36888); experiment: FLT3 WT Kinase-Glo assay; type: biochemical; settings: table of representative values; read-out: IC50 (nM) wt-FLT3
T4 construct: FLT3 kinase catalytic domain (residues Y567˜S993); made in house; host or cells: Sf9 insect cells (baculovirus, pBac-PAK8-GST-FLT3-KD plasmid)
T4 sequence (P36888 567-993): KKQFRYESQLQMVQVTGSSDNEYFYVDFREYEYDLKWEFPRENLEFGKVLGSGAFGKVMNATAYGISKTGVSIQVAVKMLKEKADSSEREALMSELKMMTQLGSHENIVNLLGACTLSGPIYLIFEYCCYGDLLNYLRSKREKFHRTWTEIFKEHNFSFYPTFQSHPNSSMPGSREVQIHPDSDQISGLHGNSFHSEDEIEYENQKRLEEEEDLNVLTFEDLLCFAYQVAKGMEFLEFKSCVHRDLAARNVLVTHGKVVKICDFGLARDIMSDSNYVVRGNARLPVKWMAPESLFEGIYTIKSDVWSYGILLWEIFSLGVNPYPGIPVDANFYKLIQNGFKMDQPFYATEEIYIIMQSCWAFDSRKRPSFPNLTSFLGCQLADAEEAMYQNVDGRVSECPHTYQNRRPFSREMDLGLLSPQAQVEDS
Experimental: GST-FLT3-KD^WT containing the FLT3 kinase catalytic domain (residues Y567˜S993) were expressed in Sf9 insect cells transfected the baculovirus containing pBac-PAK8-GST-FLT3-KD plasmid. […] Following incubation, 50 μl Kinase-Glo Plus Reagent (Promega, Madison, Wis., USA) was added to each well and the mixture was incubated at 25° C. for 20 min. A 70-μL aliquot of each reaction mixture was transferred to a black microtiter plate and the luminescence was measured on Wallac Vector 1420 multilabel counter (PerkinElmer, Shelton, Conn., USA).

[6] = Aurora A assay, 5 μM ATP, bound in nM, read-out: IC50
[7] = Aurora A assay, 5 μM ATP, bound in μM, read-out: IC50
[8] = table of representative values, read-out: IC50 (nM) Aurora A
[9] = VEGFR2 assay, 1 μM ATP, bound in μM, read-out: IC50
[10] = table of representative values, read-out: IC50 (nM) VEGFR2
[11] = VEGFR1 assay, 1 μM ATP, bound in μM, read-out: IC50
[12] = table of representative values, read-out: IC50 (nM) VEGFR1
[13] = VEGFR2 assay, 1 μM ATP, ranges in nM, read-out: IC50
[14] = VEGFR1 assay, 1 μM ATP, bound in nM, read-out: IC50

T2 sequence (P35968 789-1356): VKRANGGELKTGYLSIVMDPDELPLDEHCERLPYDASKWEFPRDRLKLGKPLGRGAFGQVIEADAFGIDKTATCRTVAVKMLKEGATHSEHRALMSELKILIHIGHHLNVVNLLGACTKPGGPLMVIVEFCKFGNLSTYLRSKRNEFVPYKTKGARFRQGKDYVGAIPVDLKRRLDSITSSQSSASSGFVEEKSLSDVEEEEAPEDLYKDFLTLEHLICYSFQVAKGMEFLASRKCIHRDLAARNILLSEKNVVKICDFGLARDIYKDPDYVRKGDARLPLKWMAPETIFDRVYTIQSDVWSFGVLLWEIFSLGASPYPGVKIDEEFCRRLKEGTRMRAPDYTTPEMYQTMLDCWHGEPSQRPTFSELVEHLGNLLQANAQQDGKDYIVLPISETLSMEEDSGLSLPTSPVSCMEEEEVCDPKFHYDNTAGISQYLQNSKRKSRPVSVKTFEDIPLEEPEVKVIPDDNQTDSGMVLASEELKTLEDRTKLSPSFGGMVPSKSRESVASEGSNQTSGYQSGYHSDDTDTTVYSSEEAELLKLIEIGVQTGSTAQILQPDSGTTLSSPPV

| Structure (SMILES) | GI50 [1] | IC50 [2, 6] | IC50 [2, 7] | IC50 [2, 8] | IC50 [3, 9] | IC50 [3, 10] | IC50 [4, 11] | IC50 [4, 12] | IC50 [5] | IC50 [3, 13] | IC50 [4, 14] |
| --- | --- | --- | --- | --- | --- | --- | --- | --- | --- | --- | --- |
| O=C(NCc1ccc(-c2cc(NC(=O)c3ccc(OCCN4CCOCC4)cc3)[nH]n2)cc1)Nc1cc(C2CC2)on1 [Compound 59d, N1-(3-4-[([(5-cyclopropyl-3-isoxazolyl)amino]carbonylamino)methyl]phenyl-1H-5-pyrazolyl)-4-(2-morpholinoethoxy)benzamide] | 6 nM | – | – | – | < 1 µM | 0.045 µM | < 1 µM | 0.342 µM | 21 nM | 0.001 to 0.055 µM | – |
| CN1CCN(Cc2ccc(C(=O)Nc3cc(-c4ccc(CNC(=O)Nc5cc(C6CC6)on5)cc4)n[nH]3)cc2)CC1 [Compound 62d, N1-(3-4-[([(5-cyclopropyl-3-isoxazolyl)amino]carbonylamino)methyl]phenyl-1H-5-pyrazolyl)-4-[(4-methylpiperazino)methyl]benzamide] | 3 nM | – | – | – | < 1 µM | 0.023 µM | < 1 µM | 0.18 µM | 38 nM | 0.001 to 0.055 µM | – |

Stronger by GI50 [1], values ahead:

| GI50 [1] | IC50 [2, 6] | IC50 [2, 7] | IC50 [2, 8] | IC50 [3, 9] | IC50 [3, 10] | IC50 [4, 11] | IC50 [4, 12] | IC50 [5] | IC50 [3, 13] | IC50 [4, 14] | Structure (SMILES) |
| --- | --- | --- | --- | --- | --- | --- | --- | --- | --- | --- | --- |
| 2 nM | < 200 nM | < 1000 nM | 41 nM | < 1 µM | 0.037 µM | < 1 µM | 0.053 µM | 38 nM | 0.001 to 0.055 µM | < 0.1 µM | Cc1cc(-c2cc(NC(=O)c3ccc(OCCN4CCOCC4)cc3)[nH]n2)ccc1NC(=O)Nc1cc(C2CC2)on1 [Compound 46c, N1-3-[4-([(5-cyclopropyl-3-isoxazolyl)amino]carbonylamino)-3-methylphenyl]-1H-5-pyrazolyl-4-(2-morpholinoethoxy)benzamide] |
| 2 nM | – | – | > 1000 nM | < 1 µM | 0.037 µM | < 1 µM | 0.029 µM | 26 nM | 0.001 to 0.055 µM | < 0.1 µM | CCc1cc(NC(=O)NCc2ccc(-c3cc(NC(=O)c4ccc(CN5CCN(C)CC5)cc4)[nH]n3)cc2)no1 [Compound 62b, N1-(3-4-[([(5-ethyl-3-isoxazolyl)amino]carbonylamino)methyl]phenyl-1H-5-pyrazolyl)-4-[(4-methylpiperazino)methyl]benzamide] |
| 1 nM | < 200 nM | < 1000 nM | 22 nM | < 1 µM | 0.151 µM | < 1 µM | 0.29 µM | 27 nM | – | – | CCc1cc(NC(=O)Nc2ccc(-c3cc(NC(=O)c4ccc(OCCN5CCOCC5)cc4)[nH]n3)cc2C)no1 [Compound 46b, N1-3-[4-([(5-ethyl-3-isoxazolyl)amino]carbonylamino)-3-methylphenyl]-1H-5-pyrazolyl-4-(2-morpholinoethoxy)benzamide] |
